Results reported in paper PMC9848300, “Discovery of novel enasidenib analogues targeting inhibition of mutant isocitrate dehydrogenase 2 as antileukaemic agents” (Journal of Enzyme Inhibition and Medicinal Chemistry, 2023).
Where two headings read alike, the source gives them in different places.

Experiments:
CCRF-CEM = test: NCI 60 antitumor screening (single dose / five doses); format: cell-based; settings: Homo sapiens, read-out: Growth inhibition percentage (GI %)
HL-60(TB) = test: as above; format: cell-based; settings: Homo sapiens
K-562 = test: as above; format: cell-based; settings: Homo sapiens
MOLT-4 = test: as above; format: cell-based; settings: Homo sapiens
EKVX = test: as above; format: cell-based; settings: Homo sapiens, read-out: Growth inhibition percentage (GI %)
COLO 205 = test: as above; format: cell-based; settings: Homo sapiens
HCT-116 = test: as above; format: cell-based; settings: Homo sapiens
HCT-15 = test: as above; format: cell-based; settings: Homo sapiens
HT29 = test: as above; format: cell-based, human; settings: Homo sapiens
SW-620 = test: as above; format: cell-based, human; settings: Homo sapiens
SF-295 = test: as above; format: cell-based; settings: Homo sapiens
SF-539 = test: as above; format: cell-based; settings: Homo sapiens
SNB-75 = test: as above; format: cell-based; settings: Homo sapiens
LOX IMVI = test: as above; format: cell-based; settings: Homo sapiens, read-out: Growth inhibition percentage (GI %)
MALME-3M = test: as above; format: cell-based; settings: Homo sapiens, read-out: Growth inhibition percentage (GI %)
SK-MEL-2 = test: as above; format: cell-based; settings: Homo sapiens
SK-MEL-28 = test: as above; format: cell-based; settings: Homo sapiens
SK-MEL-5 = test: as above; format: cell-based; settings: Homo sapiens
UACC-62 = test: as above; format: cell-based; settings: Homo sapiens
IGROV1 = test: as above; format: cell-based; settings: Homo sapiens
NCI/ADR-RES = test: as above; format: cell-based; settings: Homo sapiens, read-out: Growth inhibition percentage (GI %)
A498 = test: as above; format: cell-based; settings: Homo sapiens
ACHN = test: as above; format: cell-based; settings: Homo sapiens, read-out: Growth inhibition percentage (GI %)
SN 12C = test: as above; format: cell-based; settings: Homo sapiens, SN12C, read-out: Growth inhibition percentage (GI %)
UO-31 = test: as above; format: cell-based; settings: Homo sapiens
MDA-MB-231/ATCC = test: as above; format: cell-based; settings: Homo sapiens
T-47D = test: as above; format: cell-based; settings: Homo sapiens, T47D, read-out: Growth inhibition percentage (GI %)
MDA-MB-468 = test: as above; format: cell-based; settings: Homo sapiens
[1] = tested on: 60 human subpanel cancer cell lines; test: NCI 60 antitumor screening, mean over the panel (single dose); format: cell-based; settings: mean over 60 cancer cell lines, single dose 10 μM
Procedure, shortened: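 Single-dose NCI protocol, 10 μM, triplicate. Readout G%; GI% = 100 − G%.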

[2] = HL-60, read-out: Growth inhibition percentage (GI %)
[3] = K562, read-out: Growth inhibition percentage (GI %)
[4] = MOLT-4, read-out: Growth inhibition percentage (GI %)
[5] = COLO 205, read-out: Growth inhibition percentage (GI %)
[6] = HCT-116, read-out: Growth inhibition percentage (GI %)
[7] = HCT-15, read-out: Growth inhibition percentage (GI %)
[8] = HT-29, read-out: Growth inhibition percentage (GI %)
[9] = SW-620, read-out: Growth inhibition percentage (GI %)
[10] = SF-295, read-out: Growth inhibition percentage (GI %)
[11] = SF-539, read-out: Growth inhibition percentage (GI %)
[12] = SNB-75, read-out: Growth inhibition percentage (GI %)
[13] = SK-MEL-2, read-out: Growth inhibition percentage (GI %)
[14] = SK-MEL-28, read-out: Growth inhibition percentage (GI %)
[15] = SK-MEL-5, read-out: Growth inhibition percentage (GI %)
[16] = UACC-62, read-out: Growth inhibition percentage (GI %)
[17] = IGROV-1, read-out: Growth inhibition percentage (GI %)
[18] = A498, read-out: Growth inhibition percentage (GI %)
[19] = UO-31, read-out: Growth inhibition percentage (GI %)
[20] = MDA-MB-231, read-out: Growth inhibition percentage (GI %)
[21] = MDA-MB-468, read-out: Growth inhibition percentage (GI %)

O=[N+]([O-])c1cccc(/C=N/Nc2nc(N/N=C/c3cccc([N+](=O)[O-])c3)nc(N3CCOCC3)n2)c1 [compound 6f, 2-(Morpholin-4-yl)-4,6-bis[(E)-2-[(3-nitrophenyl)methylidene]hydrazin-1-yl]-1,3,5-triazine]
inhibition at 10 µM (CCRF-CEM; CCRF-CEM): 58.4% | inhibition at 10 µM (HL-60(TB); [2]): 47.8% | inhibition at 10 µM (K-562; [3]): 63.3% | inhibition at 10 µM (MOLT-4; [4]): 52.7% | inhibition at 10 µM (EKVX; EKVX): 11% | inhibition at 10 µM (COLO 205; [5]): 44.2% | inhibition at 10 µM (HCT-116; [6]): 35.6% | inhibition at 10 µM (HCT-15; [7]): 53.2% | inhibition at 10 µM (HT29; [8]): 42.2% | inhibition at 10 µM (SW-620; [9]): 18.4% | inhibition at 10 µM (SF-295; [10]): 13.7% | inhibition at 10 µM (SF-539; [11]): 6.2% | inhibition at 10 µM (SNB-75; [12]): 11.2% | inhibition at 10 µM (LOX IMVI; LOX IMVI): 39.5% | inhibition at 10 µM (MALME-3M; Malme-3M): 6.12% | inhibition at 10 µM (SK-MEL-2; [13]): 4.93% | inhibition at 10 µM (SK-MEL-28; [14]): 17.9% | inhibition at 10 µM (SK-MEL-5; [15]): 36.9% | inhibition at 10 µM (UACC-62; [16]): 21.1% | inhibition at 10 µM (IGROV1; [17]): 42.6% | inhibition at 10 µM (NCI/ADR-RES; NCI/ADR-RES): 30.9% | inhibition at 10 µM (A498; [18]): 13.1% | inhibition at 10 µM (ACHN; ACHN): 30.2% | inhibition at 10 µM (SN 12C): 24.4% | inhibition at 10 µM (UO-31; [19]): 50.7% | inhibition at 10 µM (MDA-MB-231/ATCC; [20]): 2.27% | inhibition at 10 µM (T-47D): 30.9% | inhibition at 10 µM (MDA-MB-468; [21]): 1.3% | Mean GI % [1]: 23.39%

Clc1cccc(/C=N/Nc2nc(N/N=C/c3cccc(Cl)c3Cl)nc(N3CCOCC3)n2)c1Cl [compound 6h, 2,4-Bis[(E)-2-[(2,3-Dichlorophenyl)methylidene]hydrazin-1-yl]-6-(morpholin-4-yl)-1,3,5-triazine]
inhibition at 10 µM (CCRF-CEM; CCRF-CEM (leukaemia), single dose 10 μM): 16.5% | inhibition at 10 µM (HL-60(TB); HL-60(TB) (leukaemia), single dose 10 μM, read-out: Growth inhibition percentage (GI %)): -3.95% | inhibition at 10 µM (K-562; K562, K-562 (leukaemia), single dose 10 μM, read-out: Growth inhibition percentage (GI %)): 38.6% | inhibition at 10 µM (MOLT-4; MOLT-4 (leukaemia), single dose 10 μM, read-out: Growth inhibition percentage (GI %)): 16.1% | inhibition at 10 µM (EKVX; EKVX (non-small cell lung cancer), single dose 10 μM): 24.4% | inhibition at 10 µM (COLO 205; COLO 205 (colon cancer), single dose 10 μM, read-out: Growth inhibition percentage (GI %)): 7.98% | inhibition at 10 µM (HCT-116; HCT-116 (colon cancer), single dose 10 μM, read-out: Growth inhibition percentage (GI %)): 19.3% | inhibition at 10 µM (HCT-15; HCT-15 (colon cancer), single dose 10 μM, read-out: Growth inhibition percentage (GI %)): 15.2% | inhibition at 10 µM (HT29; HT-29, HT29 (colon cancer), single dose 10 μM, read-out: Growth inhibition percentage (GI %)): 12.9% | inhibition at 10 µM (SW-620; SW-620 (colon cancer), single dose 10 μM, read-out: Growth inhibition percentage (GI %)): -6.25% | inhibition at 10 µM (SF-295; SF-295 (CNS cancer), single dose 10 μM, read-out: Growth inhibition percentage (GI %)): 18% | inhibition at 10 µM (SF-539; SF-539 (CNS cancer), single dose 10 μM, read-out: Growth inhibition percentage (GI %)): 44.2% | inhibition at 10 µM (SNB-75; SNB-75 (CNS cancer), single dose 10 μM, read-out: Growth inhibition percentage (GI %)): -19.6% | inhibition at 10 µM (LOX IMVI; LOX IMVI (melanoma), single dose 10 μM): 31.6% | inhibition at 10 µM (MALME-3M; MALME-3M (melanoma), single dose 10 μM): 2.72% | inhibition at 10 µM (SK-MEL-2; SK-MEL-2 (melanoma), single dose 10 μM, read-out: Growth inhibition percentage (GI %)): 13.8% | inhibition at 10 µM (SK-MEL-28; SK-MEL-28 (melanoma), single dose 10 μM, read-out: Growth inhibition percentage (GI %)): 2.23% | inhibition at 10 µM (SK-MEL-5; SK-MEL-5 (melanoma), single dose 10 μM, read-out: Growth inhibition percentage (GI %)): 15.5% | inhibition at 10 µM (UACC-62; UACC-62 (melanoma), single dose 10 μM, read-out: Growth inhibition percentage (GI %)): 11.3% | inhibition at 10 µM (IGROV1; IGROV-1, IGROV1 (ovarian cancer), single dose 10 μM, read-out: Growth inhibition percentage (GI %)): 11.2% | inhibition at 10 µM (NCI/ADR-RES; NCI/ADR-RES (ovarian cancer), single dose 10 μM): 34.2% | inhibition at 10 µM (A498; A498 (renal cancer), single dose 10 μM, read-out: Growth inhibition percentage (GI %)): -10.5% | inhibition at 10 µM (ACHN; ACHN (renal cancer), single dose 10 μM): -7.98% | inhibition at 10 µM (SN 12C; SN 12C (renal cancer), single dose 10 μM): 20.2% | inhibition at 10 µM (UO-31; UO-31 (renal cancer), single dose 10 μM, read-out: Growth inhibition percentage (GI %)): 16.1% | inhibition at 10 µM (MDA-MB-231/ATCC; MDA-MB-231/ATCC (breast cancer), single dose 10 μM, read-out: Growth inhibition percentage (GI %)): 13.8% | inhibition at 10 µM (T-47D; T-47D (breast cancer), single dose 10 μM): 44.7% | inhibition at 10 µM (MDA-MB-468; MDA-MB-468 (breast cancer), single dose 10 μM, read-out: Growth inhibition percentage (GI %)): 32.8% | Mean GI % [1]: 9.97%

O=[N+]([O-])c1cc(/C=N/Nc2nc(N/N=C/c3ccc(Cl)c([N+](=O)[O-])c3)nc(N3CCOCC3)n2)ccc1Cl [compound 6i, 2,4-Bis[(E)-2-[(4-Chloro-3-nitrophenyl)methylidene]hydrazin-1-yl]-6-(morpholin-4-yl)-1,3,5-triazine]
inhibition at 10 µM (CCRF-CEM; CCRF-CEM): 12.2% | inhibition at 10 µM (HL-60(TB); [2]): 13.7% | inhibition at 10 µM (K-562; [3]): 31.4% | inhibition at 10 µM (MOLT-4; [4]): 13.3% | inhibition at 10 µM (EKVX; EKVX): 0.07% | inhibition at 10 µM (COLO 205; [5]): -4.66% | inhibition at 10 µM (HCT-116; [6]): 7.64% | inhibition at 10 µM (HCT-15; [7]): 8.38% | inhibition at 10 µM (HT29; [8]): -2.29% | inhibition at 10 µM (SW-620; [9]): -6.94% | inhibition at 10 µM (SF-295; [10]): -7.07% | inhibition at 10 µM (SF-539; [11]): 6.38% | inhibition at 10 µM (SNB-75; [12]): -7.64% | inhibition at 10 µM (LOX IMVI; LOX IMVI): 9.76% | inhibition at 10 µM (MALME-3M; Malme-3M): -29.9% | inhibition at 10 µM (SK-MEL-2; [13]): -2.6% | inhibition at 10 µM (SK-MEL-28; [14]): -4.35% | inhibition at 10 µM (SK-MEL-5; [15]): 3.31% | inhibition at 10 µM (UACC-62; [16]): 9.59% | inhibition at 10 µM (IGROV1; [17]): 7.34% | inhibition at 10 µM (NCI/ADR-RES; NCI/ADR-RES): -0.3% | inhibition at 10 µM (A498; [18]): -10.3% | inhibition at 10 µM (ACHN; ACHN): -2.76% | inhibition at 10 µM (SN 12C): 9.02% | inhibition at 10 µM (UO-31; [19]): 22.3% | inhibition at 10 µM (MDA-MB-231/ATCC; [20]): 3.16% | inhibition at 10 µM (T-47D): 0.85% | inhibition at 10 µM (MDA-MB-468; [21]): 27.1% | Mean GI % [1]: 0.67%
